Reference: PubChem BioAssay AID1259411 (Chemical Carcinogenesis Research Information System (CCRIS), 2018)
The source made the active and inactive calls. How the calls were made is not given here.

Tested on: rodent carcinogenicity bioassays, tumor incidence
Test: CCRIS carcinogenicity studies
Method in brief: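 Archive of carcinogenicity, mutagenicity, tumor promotion and tumor inhibition results drawn from journals, NCI reports and other sources, expert-reviewed; covers 1985-2011 and is no longer updated.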

`CCn1nc(C)c2c1C(c1ccccc1)=NCC(=O)N2` was tested, and the carcinogen call (Species: MOUSE, Strain/Sex: CD-1/FEMALE, Route: ORAL, Dose: 0, 15, 150, MG/KG IN DIET FOR 78 WK (STUDY DURATION: 78 WK), Dose: 0, 15, 150, MG/KG IN DIET FOR 78 WK (STUDY DURATION: 78 WK)) was “inactive; negative”, the carcinogen call (Species: MOUSE, Strain/Sex: CD-1/MALE, Route: ORAL, Dose: 0, 15, 150, MG/KG IN DIET FOR 78 WK (STUDY DURATION: 78 WK), Dose: 0, 15, 150, MG/KG IN DIET FOR 78 WK (STUDY DURATION: 78 WK), Tumor Site: Type of Lesion: LIVER: ADENOMA) was “active; positive” and the carcinogen call (Species: RAT, Strain/Sex: CD/FEMALE, Route: ORAL, Dose: 0, 15, 150 MG/KG IN DIET FOR 104 WK (STUDY DURATION: 104 WK), Dose: 0, 15, 150 MG/KG IN DIET FOR 104 WK (STUDY DURATION: 104 WK)) was “inactive; negative”. For the same compound, the carcinogen call (Species: RAT, Strain/Sex: CD/MALE, Route: ORAL, Dose: 0, 15, 150 MG/KG IN DIET FOR 104 WK (STUDY DURATION: 104 WK), Dose: 0, 15, 150 MG/KG IN DIET FOR 104 WK (STUDY DURATION: 104 WK)) was “inactive; negative”.

In the case of `Cc1cc(N=Nc2ccccc2C)ccc1N`, the carcinogen call (Species: DOG, Route: ORAL, Tumor Site: Type of Lesion: LIVER, GALL BLADDER, URINARY BLADDER, Tumor Site: Type of Lesion: LIVER, GALL BLADDER, URINARY BLADDER) is reported as “active; positive”, the carcinogen call (Species: HAMSTER, Route: ORAL, Tumor Site: Type of Lesion: LIVER, URINARY BLADDER) is reported as “active; positive” and the carcinogen call (Species: MOUSE, Route: INTRAPERITONEAL, ORAL, SUBCUTANEOUS, DERMAL, Tumor Site: Type of Lesion: LIVER) is reported as “active; positive”. For the same compound, the carcinogen call (Species: MOUSE, Route: ORAL, SUBCUTANEOUS, Tumor Site: Type of Lesion: LUNG) was “active; positive” and the carcinogen call (Species: RAT, Route: ORAL, SUBCUTANEOUS, Tumor Site: Type of Lesion: LIVER) was “active; positive”.

In the case of `[O]=[Cr](=[O])([OH])[O][Cr](=[O])(=[O])[OH]`, the carcinogen call (Species: Mouse, Strain/Sex: B6C3F1/Female, Route: Oral, Dose: 0, 14.3, 57.3, 172, 516 mg/l of water, in drinking water for 2 yr (average daily dose of 0, 1.1, 3.9, 9, and 25 mg/kg), Tumor Site: Type of Lesion: Small intestine (duodenum, jejunum, ileum): Adenomas and carcinomas) is reported as “active; positive, authors describe as clear evidence of carcinogenic activity”, the carcinogen call (Species: Mouse, Strain/Sex: B6C3F1/Male, Route: Oral, Dose: 0, 14.3, 28.6, 85.7, 257.4 mg/l of water, in drinking water for 2 yr (average daily dose of 0, 1.1, 2.6, 7, and 17 mg/kg, Tumor Site: Type of Lesion: Small intestine (duodenum, jejunum, ileum): Adenomas and carcinomas) is reported as “active; positive, authors describe as clear evidence of carcinogenic activity” and the carcinogen call (Species: Rat, Strain/Sex: F344/N/Female, Route: Oral, Dose: 0, 14.3, 57.3, 172, 516 mg/l of water, in drinking water for 2 yr (average daily dose of 0, 0.7, 2.7, 7, and 20 mg/kg), Tumor Site: Type of Lesion: Mouth and tongue: Squamous cell papilloma and carcinoma) is reported as “active; positive, authors describe as clear evidence of carcinogenic activity”. For the same compound, the carcinogen call (Species: Rat, Strain/Sex: F344/N/Male, Route: Oral, Dose: 0, 14.3, 57.3, 172, 516 mg/l of water, in drinking water for 2 yr (average daily dose of 0, 0.6, 2.2, 6, and 17 mg/kg), Tumor Site: Type of Lesion: Mouth and tongue: Squamous cell papilloma and carcinoma) was “active; positive, authors describe as clear evidence of carcinogenic activity”.
